# In patent publication US20150158862A1, “1,3-DIHYDRO-2H-BENZIMIDAZOL-2-ONE DERIVATIVES SUBSTITUTED WITH HETEROCYCLES AS RESPIRATORY SYNCYTIAL VIRUS ANTIVIRAL AGENTS” (Janssen R&D Ireland, priority 2012, published 2015):
# Columns and labels:
# in vitro = format: cell-based; conditions: human
# Method: (§1) Black 96-well clear-bottom microtiter plates (Corning, Amsterdam, The Netherlands) were filled in duplicate using a customized robot system with serial 4-fold dilutions of compound in a final volume of 50 μl culture medium [RPMI medium without phenol red, 10% FBS, 0.04% gentamycin (50 mg/ml) and 0.5% DMSO]. Then, 100 μl of a HeLa cell suspension (5×10^4 cells/ml) in culture medium was added to each well followed by the addition of 50 μl rgRSV224 (MOI=0.02) virus in culture medium using a multidrop dispenser (Thermo Scientific, Erembodegem, Belgium). rgRSV224 virus is an engineered virus that includes an additional GFP gene (Hallak et al, 2000) and was in-licensed from the NIH (Bethesda, Md., USA). Medium, virus- and mock-infected controls were included in each test. Cells were incubated at 37° C. in a 5% CO2 atmosphere. Three days post-virus exposure, viral replication was quantified by measuring GFP expression in the cells by a MSM laser microscope (Tibotec, Beerse, Belgium). The EC50 was defined as the 50% inhibitory concentration for GFP expression. In parallel, compounds were incubated for three days in a set of white 96-well microtitier plates (Corning) and the cytotoxicity of compounds in HeLa cells was determined by measuring the ATP content of the cells using the ATPlite kit (PerkinElmer, Zaventem, Belgium) according to the manufacturer's instructions. The CC50 was defined as the 50% concentration for cytotoxicity.
# rgRSV224 virus = test: Antiviral activity: inhibition of GFP expression of rgRSV224 virus in HeLa cells; format: cell-based, respiratory syncytial virus (RSV); conditions: human respiratory syncytial virus, 72 h, read-out: WT activity EC50
# Method: as §1
SMILES,CC50 at 3 days (in vitro) [nM],EC50 (rgRSV224 virus) [nM]
"Cc1cccc2c1n(C1CC1)c(=O)n2Cc1cc2nc(Cl)ccc2n1CCCC(F)(F)F [Compound P11, 1-((5-chloro-1-(4,4,4-trifluorobutyl)-1H-pyrrolo[3,2-b]pyridin-2-yl)-methyl)-3-cyclopropyl-4-methyl-1H-benzo[d]imidazol-2(3H)-one]",12600,6310
"CC(C)CCn1c(Cn2c(=O)n(C3CC3)c3c(Cl)cccc32)nc2nc(Cl)ccc21 [Compound P9, 4-chloro-1-((5-chloro-1-isopentyl-1H-imidazo[4,5-b]pyridin-2-yl)-methyl)-3-cyclopropyl-1H-benzo[d]imidazol-2(3H)-one]",> 25000,794
Cc1cncc2c1n(C1CC1)c(=O)n2Cc1cc2cc(Cl)ccc2n1CCCS(C)(=O)=O [Compound P4],> 100000,19.9
CS(=O)(=O)CCCn1c(Cn2c(=O)n(C3CC3)c3c(Cl)cncc32)cc2cc(Cl)ccc21 [Compound P3],> 100000,19.9
"O=c1n(Cc2cc3cc(Cl)ccc3n2CCCC(F)(F)F)c2cccc(Cl)c2n1CC(F)(F)F [Compound P7, 4-chloro-1-((5-chloro-1-(4,4,4-trifluorobutyl)-1H-indol-2yl)methyl)-3-(2,2,2-trifluoroethyl)-1H-benzo [d]imidazol-2(3H)-one]",> 100000,–
CS(=O)(=O)CCCn1c(Cn2c(=O)n(C3CC3)c3c(Cl)cccc32)cc2cc(Cl)ccc21 [Compound P6],31600,631
"CS(=O)(=O)CCCn1c(Cn2c(=O)n(CC(F)(F)F)c3c(Cl)cncc32)cc2cc(Cl)ccc21 [Compound P5, 7-chloro-3-((5-chloro-1-(3-(methylsulfonyl)propyl)-1H-indol-2-yl)-methyl)-1-(2,2,2-trifluoroethyl)-1H-imidazo[4,5-c]pyridin-2(3H)-one]",31600,25.1
O=c1n(Cc2cc3cc(Cl)ccc3n2CCCC(F)(F)F)c2cncc(Cl)c2n1CC(F)(F)F [Compound P2],> 100000,100
"Cc1cccc2c1n(C1CC1)c(=O)n2Cc1nc2nc(Cl)ccc2n1CCC(C)C [Compound P10, 1-((5-chloro-1-isopentyl-1H-imidazo[4,5-b]pyridin-2-yl)methyl)-3-cyclopropyl-4-methyl-1H-benzo[d]imidazol-2(3H)-one]",> 50000,398
"CS(=O)(=O)CCCn1c(Cn2c(=O)n(CC(F)(F)F)c3c(Cl)cccc32)cc2cc(Cl)ccc21 [Compound P1, 4-chloro-1-((5-chloro-1-(3-(methylsulfonyl)-propyl)-1H-indol-2-yl)methyl)-3-(2,2,2-trifluoroethyl)-1H-benzo[d]imidazo-2(3H)-one]",> 100000,398
"Cc1cncc2c1n(CC(F)(F)F)c(=O)n2Cc1cc2cc(Cl)ccc2n1CCCS(C)(=O)=O [Compound P8, 3-((5-chloro-1-(3-(methylsulfonyl)propyl)-1H-indol-2-yl)methyl)-7-methyl-1-(2,2,2-trifluoroethyl)-1H-imidazo[4,5-c]pyridin-2(3H)-one]",50100,100
